Measured values taken from US7531195B2, “Schisandrin B preparation” (priority 2005, dated 2009).

Columns and labels:
[1] = tested on: Hsp70; assay: Hsp70 expression in H9c2 cells (Western blot); format: cell-based, rat; details: 6.25 μM
Protocol: H9c2 cells, a permanent cell line derived from cardiac myoblasts of rat embryo, have early been characterized as a suitable model of myocardial cells [Hescheler et al. 1991]. H9c2 cells were cultured as monolayers in Dulbecco's modified Eagle's medium (GIBCO BRL) supplemented with 10% (v/v) fetal bovine serum. The medium contained glucose (4.5 g/L) and glutamine (4.5 mM), supplemented with NaHCO3 (17 mM), penicillin (100 IU/ml), and streptomycin (100 μg/ml). Cells were grown under an atmosphere of 5% CO2 in air at 37° C. The medium was replaced by fresh medium every 2 or 3 days. A stock of cells was grown in a 75 cm culture flask and split before confluence at a subcultivation ratio of 1:10. Cells used for experiments were seeded at a density of 3.75×10^4 cells/well on a 12-well culture plate, and the cells were grown for 24 h to about 80% confluence prior to drug treatment.
Cultured H9c2 cells were treated with (−) Schisandrin B, (+) Schisandrin B or (±) Schisandrin B (dissolved in DMSO) at 6.25 μM (0.2% DMSO final concentration) for increasing periods of time. Control cells were given the vehicle (i.e. DMSO) only.
Immediately following the drug treatment, the cells were washed twice with 0.5 ml cold PBS and treated with 100 μl lysis buffer containing 20 mM Tris HCl, 3 mM EGTA, 1% Triton X-100, 10% glycerol and 2 mM dithiothreitol, pH 7.5, with freshly added protease inhibitors (1 mM phenylmethylsulfonyl fluoride, 0.1 mM benzamide, 5 μg/ml leupeptin, 5 μg aproptinin and 5 μg/ml pepstain A). The mixture was incubated at 4° C. for 15 min with constant shaking. Then the cells were scraped off from the plate, and the extract was transferred to a microcentrifuge tube for centrifugation at 2,400 g for 3 min at 4° C. The resultant supernatant was used for Hsp analysis. Hsp25 and Hsp70 levels was estimated by Western blot analysis using specific antibodies (anti-Hsp25, catalog #SPA-801; anti-Hsp70, catalog #SPA-812) from StressGen (Vancouver, BC, Canada) following SDS-PAGE analysis cell lysates, using a separating gel of 10% acrylamide as described in Ip et. al. [2001]. Hsp25/27 and Hsp70 (human recombinant proteins from StressGen) and actin (bovine muscle from Sigma) were used as markers for reference. […] All immuno-blots were analyzed by densitometry, and the amounts (arbitrary units) of Hsp were normalized with reference to actin levels (arbitrary units) in the sample.

[2] = tested on: mitochondria of brain, heart, liver and skeletal muscle; assay: Mitochondrial antioxidant status in various tissues of young female rats; format: in vivo, rat; details: (−) Sch B, α-LA, α-Toc at daily 10, 5 and 70 mg/kg respectively, 15 days
Protocol: The dosages were determined with reference to the equivalent amount of crude herb prescribed for human or the daily recommended intake in health supplements. The control animals received olive oil only. Twenty-four hours after the last dose, the pentobarbital-anesthetized animals were sacrificed by cardiac excision, and brain. heart, liver and skeletal muscle tissues were obtained. Tissue samples (brain, heart, liver, and skeletal muscle) were rinsed with ice-cold isotonic buffer (50 mM Tris, 0.32 M sucrose, 1 mM Na2EDTA, 0.2 mg/ml soybean trypsin inhibitor, 0.2 mg/ml bacitracine, 0.16 mg/ml benzamidine). Tissue homogenates were prepared by homogenizing 0.8 g of myocardial tissue in 8 ml ice-cold isotonic buffer and the homogenates were used for the preparation of mitochondrial fractions by differential centrifugation, as described in Chiu and Ko (2004). The mitochondrial pellets were resuspended in 1.5 ml of isotonic buffer containing 150 μl of 2 mg/ml soybean trypsin inhibitor and constituted the mitochondrial fractions. […] (St. Louis, Mo., USA). […] Aliquots (400 μl) of mitochondrial fractions were mixed with 933 μl Triton X-100 solution (0.3%, v/v, in isotonic buffer) and sonicated for 2 min on ice. The mixtures were then subjected to measurements of mitochondrial glutathione reductase (GRD), Se-glutathione peroxidase (GPX) and glutathione S-transferases (GST) activities by spectrophotometric methods, as described in Chiu et al. (2002).

[3] = tested on: Hsp70; assay: Tissue Hsp70 level in young female rats (Western blot); format: in vivo, rat; details: 10 mg/kg daily, 15 days
Protocol: Female Sprague-Dawley rats (8 weeks old) were maintained under a 12-h dark/light cycle at about 22° C. and allowed food and water ad libitum. Drug treated animals received a daily bolus dose of (−) Schisandrin B, α-lipoic acid (α-LA) or α-tocopherol (α-Toc) at 10, 5 and 70 mg/kg, respectively, for 15 days. The dosages were determined with reference to the equivalent amount of crude herb prescribed for human or the daily recommended intake in health supplements. The control animals received olive oil only. Twenty-four hours after the last dose, the pentobarbital-anesthetized animals were sacrificed by cardiac excision, and brain. heart, liver and skeletal muscle tissues were obtained.
Hsp25 and Hsp70 levels was estimated by Western blot analysis using specific antibodies (anti-Hsp25, catalog #SPA-801; anti-Hsp70, catalog #SPA-812) from StressGen (Vancouver, BC, Canada) following SDS-PAGE analysis of the nuclear-free tissue homogenates, using a separating gel of 10% acrylamide as described in Ip et. al. (2001). Hsp25/27 and Hsp70 (human recombinant proteins from StressGen) and actin (bovine muscle from Sigma) were used as markers for reference. […] All immuno-blots were analyzed by densitometry, and the amounts (arbitrary units) of Hsp were normalized with reference to actin levels (arbitrary units) in the sample.

## COc1cc2c(c(OC)c1OC)-c1c(cc3c(c1OC)OCO3)CC(C)C(C)C2 (single isomer, unassigned; (-)) [(−) Sch B, (−) Schisandrin B]
[1]; 0 h post-dosing (unpretreated control)
  Hsp 70 Level: 465 ± 14.3 AU
[1]; 8 h post-dosing
  Hsp 70 Level: 486 ± 16.7 AU
[1]; 16 h post-dosing
  Hsp 70 Level: 548 ± 6.67 AU
[1]; 24 h post-dosing
  Hsp 70 Level: 1058 ± 61 AU
  Hsp 70 Level, percent increase vs unpretreated control (0 h): (128%)
[1]; 48 h post-dosing
  Hsp 70 Level: 556 ± 32.1 AU
[1]; post-dosing
  time of maximum stimulation of Hsp70 level: 24 h
[2]; BRAIN
  GPX: 163 ± 9 percent control
  GRD: 150 ± 9 percent control
  GSH: 147 ± 4 percent control
  GST: 143 ± 4 percent control
  α-Toc level: 141 ± 7 percent control
[2]; HEART
  GPX: 143 ± 7 percent control
  GRD: 163 ± 6 percent control
  GSH: 159 ± 2 percent control
  GST: 161 ± 5 percent control
  α-Toc level: 160 ± 13 percent control
[2]; LIVER
  GPX: 135 ± 3 percent control
  GRD: 161 ± 10 percent control
  GSH: 175 ± 5 percent control
  GST: 154 ± 4 percent control
  α-Toc level: 167 ± 14 percent control
[2]; SKELETAL MUSCLE
  GPX: 125 ± 5 percent control
  GRD: 166 ± 4 percent control
  GSH: 137 ± 1 percent control
  GST: 171 ± 10 percent control
  α-Toc level: 178 ± 13 percent control
[3]; BRAIN
  Heat Shock Protein Level, Hsp70: 0.49 ± 0.05 AU
  Hsp70 level, percent increase vs untreated control: (77%)
[3]; HEART
  Heat Shock Protein Level, Hsp70: 0.71 ± 0.03 AU
  Hsp70 level, percent increase vs untreated control: (17%)
[3]; LIVER
  Heat Shock Protein Level, Hsp70: 0.69 ± 0.001 AU
  Hsp70 level, percent increase vs untreated control: (45%)
[3]; SKELETAL MUSCLE
  Heat Shock Protein Level, Hsp70: 0.69 ± 0.07 AU
  Hsp70 level, percent increase vs untreated control: (57%)
